Experimental data from article PMC9412534, “Diindolylmethane Derivatives: New Selective Blockers for T-Type Calcium Channels” (Membranes, 2022).

How the values were obtained:
HT-29 cells = assay: Cell viability MTT assay, HT-29; format: cell-based, human; conditions: for viability at 50 µM: HT-29, 50 µM, n = 4; for preferential anti-proliferative activity on HT-29: versus MCF-7, T-47D, A549
Method: (§1) Human breast cancer cell line MCF-7 and T-47D, lung cancer cell line A549, and colon cancer cell line HT-29 were cultured under 5% carbon dioxide at 37 °C in DMEM Glutamax (Gibco, Life Technologies) supplemented with 10% (v/v) FBS. They were split in a ratio of 1:3–1:6 (ideally 2–4 × 10,000 cells/cm^2) when they reached 70–80% confluence using 0.25% Trypsin-EDTA. For cell viability MTT assay, cells were seeded into 96-well clear bottom culture plates (Corning, Lowell, MA, USA) at a density of 5 × 10^3 cells/well and settled at 37 °C for 24 h.
(§2) Seeded cells were treated with various concentrations of compounds for desired time period (24, 48 and 72 h). After the treatments, the media were removed from each well, and replaced with 25 μL of serum-free media and 25 μL of MTT Reagent (cat. no., ab211091; Abcam, Cambridge, MA, USA). The plate was then incubated at 37 °C for 3 h, and 75 μL of MTT Solvent (cat. no., ab211091; Abcam) was added into each well after incubation. The absorbance was evaluated at 590 nm. Cell-wells treated with 0.1% DMSO were used as positive control and no cell-wells were used as background control.

MCF-7 cells = assay: Cell viability MTT assay, MCF-7; format: cell-based, human; conditions: Homo sapiens, 72 h treatment; for viability at 50 µM: MCF7, 50 µM, n = 4
Method: as §1, §2

CaV3.3 = CaV3.3 (Homo sapiens, UniProt Q9P0X4); assay: T-type calcium channel window current FLIPR assay, CaV3.3; format: cell-based; conditions: FLIPR window current; for IC50: n = 3, read-out: IC50 CaV3.3 (LVA CaVs)
Method: (§3) The human embryonic kidney 293 (HEK 293) cell lines (from Emmanuel Bourinet, Montpellier, France) stably expressing CaV3.2 or CaV3.3 were cultured under 5% carbon dioxide at 37 °C in Dulbecco’s Modified Eagle Medium (DMEM) Glutamax (Gibco, Life Technologies, Carlsbad, CA, USA) supplemented with 10% (v/v) fetal bovine serum (FBS), 100 U/mL penicillin, 100 μg/mL streptomycin (Gibco, Life Technologies, Carlsbad, CA, USA), and 750 μg/mL geneticin (G418) (Gibco, Life Technologies). The Chinese Hamster Ovary (CHO) cell lines (Emmanuel Bourinet, Montpellier, France) expressing CaV3.1 were cultured under 5% carbon dioxide at 37 °C in Alpha Minimum Essential Media (MEM) Glutamax (Gibco, Life Technologies), supplemented with 10% (v/v) fetal bovine serum (FBS) and 300 μg/mL geneticin (G418) (Gibco, Life Technologies). The human neuroblastoma SH-SY5Y cells (Victor Diaz, Goettingen, Germany) were cultured under 5% carbon dioxide at 37 °C in RPMI 1640 antibiotic-free medium (Invitrogen, Carlsbad, CA, USA), supplemented with 15% FBS and 2 mM GlutaMAX™ (Invitrogen). D-PBS (Gibco, Life Technologies) was used to wash the cells, and 0.25% Trypsin-EDTA (Gibco, Life Technologies) was used to detach cells from the flask surface. They were split in a ratio of 1:5 (ideally 1000 cells/cm^2) when they reached 70–80% confluence (every 2–3 days). Transiently transfected CaV3.1 HEK293 T cells were used in FLIPR Assays. HEK 293 T cells were cultured under 5% carbon dioxide at 37 °C in DMEM supplemented with 10% (v/v) FBS. D-PBS was used to wash the cells, and 0.25% Trypsin-EDTA was used to detach cells from the flask surface. The cells were split and seeded at 6 million cells per T175 flask, to reach 70–80% confluence after 24 h. The next day, 12 μg DNA of human CaV3.1 was incubated in 900 μL serum-free DMEM with 36 μL FuGENE HD transfection reagent (Promega Corporation, Madison, WI, USA) (1:3 DNA/Fugene ratio) for 20 min, and then the mixture was added into the cell flask slowly, drop by drop. After the transfection, the cells were cultured under 5% carbon dioxide at 37 °C for 24 h and then moved to a 28 °C incubator.
(§4) HEK 293 cells stably expressing CaV3.2 or CaV3.3 were seeded into 384-well black wall clear bottom plates (Corning) at a density of 30,000 cells per well. Transiently transfected CaV3.1HEK293 T cells were seeded into 384-well black wall clear bottom plates at a density of 60,000 cells per well. Once the cells reached 90–95% confluence after 24 h, the media were removed from the wells and replaced with 20 μL of 10% calcium 4 dye (Molecular Devices, Sunnyvale, CA, USA) in HBSS-HEPES (containing 5 mM KCl, 10 mM HEPES, 140 mM NaCl, 10 mM glucose, and 0.5 mM CaCl2, pH 7.4) with 0.1% bovine serum albumin (BSA). The cells were incubated for 30 min at 37 °C in the presence of 5% carbon dioxide. Each well on the reagent plates for the first addition contained 15 μL different concentrations of compounds dissolved in HBSS-HEPES containing 0.1% BSA and <0.5% DMSO and was incubated for 20 min after loaded. Positive and negative controls contained 15 μL of HBSS-HEPES (0.1% BSA) alone. The plates were placed in the FLIPR^TETRA (Molecular Devices, Sunnyvale, CA, USA) programmed to measure maximum fluorescence intensity following a second addition of the agonist 5 mM CaCl2. The fluorescence readings were recorded and converted as described previously, and HBSS-HEPES (0.1% BSA) was used in the second addition as a negative control.

CaV2.2 = biological target: T1, CaV2.2 (Homo sapiens, UniProt Q00975); assay: HVA N-type calcium channel FLIPR assay in SH-SY5Y cells; format: cell-based; conditions: 10 µM nifedipine present, n = 3, read-out: IC50 CaV2.2 (HVA CaVs)
T1 construct: endogenous in cells; host or cells: SH-SY5Y human neuroblastoma cells
Method: as §3
(§5) SH-SY5Y cells were seeded into 384-well black wall clear bottom plates at a density of 15,000 cells per well, resulting in 90–95% confluence after 24 h. The media were then removed from the wells and replaced with 20 μL of 10% calcium 4 dye (Molecular Devices) in physiological salt solution (PSS) (containing 5.9 mM KCl, 1.4 mM MgCl2, 10 mM HEPES, 1.2 mM NaH2 PO4, 5 mM NaHCO3, 140 mM NaCl, 11.5 mM glucose, and 1.8 mM CaCl2, pH 7.4) with 0.1% BSA. As reported, for N-type calcium channel FLIPR assays the cells were pre-incubated with 10 µM nifedipine added in the dye to ensure full inhibition of L-type calcium responses. For L-type calcium channel FLIPR assays, the cells were pre-incubated with 1 µM CVID added in the dye to ensure full inhibition of N-type calcium responses. Positive control on the first reagent plate contained 15 μL of PSS (0.1% BSA), whereas PSS (0.1% BSA) containing 1 µM CVID and 10 µM nifedipine (final concentration) was used as a negative control. The fluorescence readings were recorded and converted as described previously, and agonist containing 90 mM KCl + 5 mM CaCl2 was used in the second addition.

CaV1 = assay: HVA L-type calcium channel FLIPR assay in SH-SY5Y cells; format: cell-based, human; conditions: 1 µM CVID present, n = 3, read-out: IC50 CaV1 (HVA CaVs)
Method: as §3, §5

A549 cells = assay: Cell viability MTT assay, A549; format: cell-based, human; conditions: for viability at 50 µM: A549, 50 µM, n = 4
Method: as §1, §2

T-47D cells = assay: Cell viability MTT assay, T-47D; format: cell-based, human; conditions: Homo sapiens, T47D, 72 h treatment; for viability at 50 µM: n = 4
Method: as §1, §2

human CaV3.1 = biological target: T2, human CaV3.1 (Homo sapiens, UniProt O43497); assay: T-type calcium channel window current FLIPR assay, CaV3.1; format: cell-based; conditions: n = 3, read-out: IC50 CaV3.1 (LVA CaVs)
T2 construct: expressed in transfected cells; host or cells: HEK 293 T cells, transient transfection (FuGENE HD)
Method: as §3, §4

[1] = tested on: voltage-gated calcium channels (VGCC); assay: VGCC FLIPR cell-based assays, all channels (overall observation); design: species or system human
Method: as §4, §5

CaV3.2 = CaV3.2 (Homo sapiens, UniProt O95180); assay: T-type calcium channel window current FLIPR assay, CaV3.2; format: cell-based; conditions: FLIPR window current, n = 3; read-out: IC50 CaV3.2 (LVA CaVs)
Method: as §3, §4

[2] = Solubility in assay buffer with 0.1% BSA; format: physicochemical

T2 sequence (O43497 whole entry): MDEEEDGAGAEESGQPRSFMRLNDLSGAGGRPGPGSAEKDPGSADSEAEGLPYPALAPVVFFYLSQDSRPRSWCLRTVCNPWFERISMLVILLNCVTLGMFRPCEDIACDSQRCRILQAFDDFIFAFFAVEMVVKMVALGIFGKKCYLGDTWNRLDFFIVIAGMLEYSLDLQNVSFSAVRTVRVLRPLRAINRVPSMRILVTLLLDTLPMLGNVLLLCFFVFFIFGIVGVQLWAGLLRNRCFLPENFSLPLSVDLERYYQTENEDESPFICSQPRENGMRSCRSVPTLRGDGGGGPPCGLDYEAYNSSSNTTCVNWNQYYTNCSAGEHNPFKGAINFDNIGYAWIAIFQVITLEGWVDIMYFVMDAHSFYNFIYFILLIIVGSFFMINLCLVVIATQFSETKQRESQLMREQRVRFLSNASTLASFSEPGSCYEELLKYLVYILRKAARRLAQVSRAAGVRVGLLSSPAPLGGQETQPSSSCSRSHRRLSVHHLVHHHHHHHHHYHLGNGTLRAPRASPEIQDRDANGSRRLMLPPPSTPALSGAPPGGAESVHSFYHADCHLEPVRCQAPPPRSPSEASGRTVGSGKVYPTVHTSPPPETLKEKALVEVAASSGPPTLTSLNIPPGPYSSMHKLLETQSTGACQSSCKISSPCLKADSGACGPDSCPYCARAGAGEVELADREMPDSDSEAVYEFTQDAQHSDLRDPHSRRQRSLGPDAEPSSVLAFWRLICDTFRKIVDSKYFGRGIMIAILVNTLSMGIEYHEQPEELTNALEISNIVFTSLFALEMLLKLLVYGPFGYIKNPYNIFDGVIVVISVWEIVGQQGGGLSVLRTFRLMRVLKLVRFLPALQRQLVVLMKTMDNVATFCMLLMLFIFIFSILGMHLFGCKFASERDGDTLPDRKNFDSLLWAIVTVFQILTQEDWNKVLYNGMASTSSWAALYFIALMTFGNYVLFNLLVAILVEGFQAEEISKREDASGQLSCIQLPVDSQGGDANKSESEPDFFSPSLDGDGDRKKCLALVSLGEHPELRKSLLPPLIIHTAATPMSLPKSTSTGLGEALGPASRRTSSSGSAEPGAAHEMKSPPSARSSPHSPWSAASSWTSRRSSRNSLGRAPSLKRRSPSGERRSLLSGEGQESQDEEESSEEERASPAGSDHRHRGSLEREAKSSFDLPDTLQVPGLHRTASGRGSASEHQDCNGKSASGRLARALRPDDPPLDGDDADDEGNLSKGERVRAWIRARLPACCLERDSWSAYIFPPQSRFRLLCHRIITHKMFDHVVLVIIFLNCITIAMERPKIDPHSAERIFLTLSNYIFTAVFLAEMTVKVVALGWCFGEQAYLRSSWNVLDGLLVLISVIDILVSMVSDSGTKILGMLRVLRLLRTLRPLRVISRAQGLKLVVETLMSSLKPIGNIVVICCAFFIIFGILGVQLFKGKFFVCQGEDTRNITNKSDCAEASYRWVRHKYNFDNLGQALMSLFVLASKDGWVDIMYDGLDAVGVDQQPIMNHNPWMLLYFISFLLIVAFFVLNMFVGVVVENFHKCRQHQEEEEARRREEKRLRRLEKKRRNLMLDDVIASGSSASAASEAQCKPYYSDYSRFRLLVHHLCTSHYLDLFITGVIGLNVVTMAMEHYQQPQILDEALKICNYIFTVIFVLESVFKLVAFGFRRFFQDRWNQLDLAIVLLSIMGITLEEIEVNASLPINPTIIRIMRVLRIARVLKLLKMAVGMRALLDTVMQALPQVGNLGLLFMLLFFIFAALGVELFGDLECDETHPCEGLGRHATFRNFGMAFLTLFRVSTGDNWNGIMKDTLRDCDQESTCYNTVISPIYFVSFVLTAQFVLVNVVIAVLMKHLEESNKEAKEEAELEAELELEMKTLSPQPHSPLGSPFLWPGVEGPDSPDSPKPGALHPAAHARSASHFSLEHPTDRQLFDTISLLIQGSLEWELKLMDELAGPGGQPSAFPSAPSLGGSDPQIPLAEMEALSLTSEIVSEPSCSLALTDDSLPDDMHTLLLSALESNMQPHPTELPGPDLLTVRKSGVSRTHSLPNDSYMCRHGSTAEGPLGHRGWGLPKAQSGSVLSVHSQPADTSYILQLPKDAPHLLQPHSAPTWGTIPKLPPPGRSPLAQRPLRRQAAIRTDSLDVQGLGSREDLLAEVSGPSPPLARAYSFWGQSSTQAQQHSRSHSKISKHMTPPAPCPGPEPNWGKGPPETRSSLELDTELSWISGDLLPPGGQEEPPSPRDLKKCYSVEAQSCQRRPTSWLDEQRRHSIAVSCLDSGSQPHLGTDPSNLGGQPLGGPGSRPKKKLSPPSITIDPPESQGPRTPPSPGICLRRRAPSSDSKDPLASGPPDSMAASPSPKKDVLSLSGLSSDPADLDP
Chain of CaV3.2 (O95180 whole entry): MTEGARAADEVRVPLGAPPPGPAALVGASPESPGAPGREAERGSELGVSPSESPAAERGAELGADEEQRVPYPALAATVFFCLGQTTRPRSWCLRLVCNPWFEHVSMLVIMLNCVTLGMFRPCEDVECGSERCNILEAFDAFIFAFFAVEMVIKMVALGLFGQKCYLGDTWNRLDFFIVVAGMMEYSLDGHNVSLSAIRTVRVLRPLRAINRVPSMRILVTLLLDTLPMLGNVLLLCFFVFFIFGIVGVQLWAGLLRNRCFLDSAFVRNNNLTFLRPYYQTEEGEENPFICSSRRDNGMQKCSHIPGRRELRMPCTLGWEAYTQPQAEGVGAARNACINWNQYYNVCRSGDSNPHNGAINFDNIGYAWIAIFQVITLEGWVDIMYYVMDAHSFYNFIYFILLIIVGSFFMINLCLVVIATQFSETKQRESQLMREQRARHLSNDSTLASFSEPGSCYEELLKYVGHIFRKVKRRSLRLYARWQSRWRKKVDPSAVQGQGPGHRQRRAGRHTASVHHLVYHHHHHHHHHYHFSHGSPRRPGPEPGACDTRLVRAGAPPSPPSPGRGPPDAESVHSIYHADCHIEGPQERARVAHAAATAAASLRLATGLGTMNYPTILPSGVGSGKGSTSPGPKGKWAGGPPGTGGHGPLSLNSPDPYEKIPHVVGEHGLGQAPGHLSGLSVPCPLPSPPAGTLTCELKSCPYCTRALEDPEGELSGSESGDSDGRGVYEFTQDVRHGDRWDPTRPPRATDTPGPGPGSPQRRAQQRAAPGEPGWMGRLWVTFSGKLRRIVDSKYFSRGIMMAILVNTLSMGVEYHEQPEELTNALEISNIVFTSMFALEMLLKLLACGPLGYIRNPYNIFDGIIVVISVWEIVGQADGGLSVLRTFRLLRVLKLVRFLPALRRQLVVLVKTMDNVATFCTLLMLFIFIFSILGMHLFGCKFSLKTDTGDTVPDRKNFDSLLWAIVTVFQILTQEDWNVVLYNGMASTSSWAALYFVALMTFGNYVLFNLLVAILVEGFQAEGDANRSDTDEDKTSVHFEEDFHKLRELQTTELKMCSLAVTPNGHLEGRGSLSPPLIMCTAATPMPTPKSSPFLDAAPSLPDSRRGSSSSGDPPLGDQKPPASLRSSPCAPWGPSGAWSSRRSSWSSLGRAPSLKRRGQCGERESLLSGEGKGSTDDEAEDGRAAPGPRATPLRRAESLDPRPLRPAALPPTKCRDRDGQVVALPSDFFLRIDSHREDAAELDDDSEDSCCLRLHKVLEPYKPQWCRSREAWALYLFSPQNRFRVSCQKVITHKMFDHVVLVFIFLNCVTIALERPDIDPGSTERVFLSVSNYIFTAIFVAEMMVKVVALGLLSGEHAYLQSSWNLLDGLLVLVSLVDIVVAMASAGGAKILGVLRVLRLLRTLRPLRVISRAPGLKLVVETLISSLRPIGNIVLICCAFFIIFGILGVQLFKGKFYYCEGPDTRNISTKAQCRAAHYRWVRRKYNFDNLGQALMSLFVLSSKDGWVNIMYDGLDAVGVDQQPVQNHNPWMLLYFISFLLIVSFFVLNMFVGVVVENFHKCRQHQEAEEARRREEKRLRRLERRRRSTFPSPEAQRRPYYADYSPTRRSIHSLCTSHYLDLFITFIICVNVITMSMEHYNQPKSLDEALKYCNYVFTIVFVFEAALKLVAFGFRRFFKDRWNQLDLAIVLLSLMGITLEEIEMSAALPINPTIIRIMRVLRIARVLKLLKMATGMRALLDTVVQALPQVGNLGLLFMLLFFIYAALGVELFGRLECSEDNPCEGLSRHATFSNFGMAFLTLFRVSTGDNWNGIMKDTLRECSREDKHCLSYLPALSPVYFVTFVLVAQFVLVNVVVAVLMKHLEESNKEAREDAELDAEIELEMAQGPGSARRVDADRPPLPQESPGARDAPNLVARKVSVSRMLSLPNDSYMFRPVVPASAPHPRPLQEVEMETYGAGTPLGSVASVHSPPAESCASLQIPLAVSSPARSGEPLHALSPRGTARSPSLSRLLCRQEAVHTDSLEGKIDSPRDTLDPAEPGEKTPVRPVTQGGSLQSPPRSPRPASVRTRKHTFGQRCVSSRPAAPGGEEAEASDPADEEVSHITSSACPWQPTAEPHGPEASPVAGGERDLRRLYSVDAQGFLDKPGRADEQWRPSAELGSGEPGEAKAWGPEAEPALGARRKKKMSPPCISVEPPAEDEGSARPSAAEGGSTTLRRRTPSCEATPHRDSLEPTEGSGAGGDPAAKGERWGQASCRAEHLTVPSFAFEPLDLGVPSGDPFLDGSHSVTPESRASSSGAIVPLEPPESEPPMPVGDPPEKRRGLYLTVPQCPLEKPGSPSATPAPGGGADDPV

| Structure (SMILES) | IC50 (HT-29 cells; Homo sapiens, HT-29, 72 h, 72 h treatment, n = 3) [µM] | IC50 (MCF-7 cells; MCF7, 72 h, n = 3) [µM] | IC50 (CaV3.3) [µM] | IC50 (CaV2.2) [µM] | IC50 (CaV1) [µM] | IC50 (A549 cells; Homo sapiens, A549, 72 h, 72 h treatment, n = 3) [µM] | IC50 (T-47D cells; 72 h, n = 3) [µM] | IC50 (human CaV3.1) [µM] | IC50 (CaV3.2) [µM] | inhibition against CaV3.3 (CaV3.3) | solubility in buffer [2] | better antiproliferative effect on HT-29 cell viability than on the other three cancer cell lines (HT-29 cells; 72 h treatment) [fold] | viability at 50 µM (HT-29 cells; Homo sapiens, 72 h treatment) [%] | preferential anti-proliferative activity on HT-29 (HT-29 cells) | viability at 50 µM (MCF-7 cells) [%] | viability at 50 µM (A549 cells; Homo sapiens, 72 h treatment) [%] | viability at 50 µM (T-47D cells) [%] | inhibition of all the Ca2+ responses [1] | effect on A549 cell proliferation (A549 cells; 50 µM, 72 h) |
| --- | --- | --- | --- | --- | --- | --- | --- | --- | --- | --- | --- | --- | --- | --- | --- | --- | --- | --- | --- |
| O=C(c1c[nH]c2ccccc12)c1cn(S(=O)(=O)O)c2ccccc12 [III] | – | – | 17.8 ± 4.64 | 60.9 ± 3.37 | 192 ± 30.5 | – | – | 58.8 ± 6.85 | 106 ± 11.8 | moderate inhibition | – | – | 21.6 ± 1.1 | preferential anti-proliferative activity | 84.9 ± 5.75 | 211 ± 4.69 | 79.7 ± 3.74 | – | promoted A549 cell proliferation |
| O=C(c1cn(S(=O)(=O)O)c2ccccc12)c1cn(S(=O)(=O)O)c2ccccc12 [XI, 3,3'-carbonylbis(1H-indole-1-sulfonic acid)] | – | – | – | – | – | – | – | – | – | – | highly insoluble | – | – | – | – | – | – | – | – |
| Cc1ccc(S(=O)(=O)n2cc(C(=O)c3cn(S(=O)(=O)c4ccc(C)cc4)c4ccccc34)c3ccccc32)cc1 [X] | – | – | 78.3 ± 4.79 | 54.5 ± 1.84 | 47.9 ± 1.37 | – | – | 53.4 ± 0.93 | 99.9 ± 3.56 | – | – | – | – | – | – | – | – | poor inhibition | – |

Continued, in another order:

| IC50 (HT-29 cells; Homo sapiens, HT-29, 72 h, 72 h treatment, n = 3) [µM] | IC50 (MCF-7 cells; MCF7, 72 h, n = 3) [µM] | IC50 (CaV3.3) [µM] | IC50 (CaV2.2) [µM] | IC50 (CaV1) [µM] | IC50 (A549 cells; Homo sapiens, A549, 72 h, 72 h treatment, n = 3) [µM] | IC50 (T-47D cells; 72 h, n = 3) [µM] | IC50 (human CaV3.1) [µM] | IC50 (CaV3.2) [µM] | inhibition against CaV3.3 (CaV3.3) | solubility in buffer [2] | Structure (SMILES) | better antiproliferative effect on HT-29 cell viability than on the other three cancer cell lines (HT-29 cells; 72 h treatment) [fold] | viability at 50 µM (HT-29 cells; Homo sapiens, 72 h treatment) [%] | preferential anti-proliferative activity on HT-29 (HT-29 cells) | viability at 50 µM (MCF-7 cells) [%] | viability at 50 µM (A549 cells; Homo sapiens, 72 h treatment) [%] | viability at 50 µM (T-47D cells) [%] | inhibition of all the Ca2+ responses [1] | effect on A549 cell proliferation (A549 cells; 50 µM, 72 h) |
| --- | --- | --- | --- | --- | --- | --- | --- | --- | --- | --- | --- | --- | --- | --- | --- | --- | --- | --- | --- |
| 15 | 51 | 92.6 ± 1.46 | 90.2 ± 4.93 | 88.2 ± 7.95 | 27 | 38 | 92.1 ± 4.69 | 67.5 ± 6.05 | – | – | O=C(c1c[nH]c2cc(Br)ccc12)c1cn(S(=O)(=O)O)c2cc(Br)ccc12 [V] | ≥ 2 | 0.93 ± 0.06 | preferential anti-proliferative activity | 29.52 ± 0.19 | 14.1 ± 0.15 | 31.4 ± 0.43 | poor inhibition | – |
| – | – | > 200 | 53.8 ± 2.43 | > 200 | – | – | 154 ± 18.1 | > 200 | – | – | CCOC(=O)C(=O)c1c[nH]c2ccccc12 [VI] | – | – | – | – | – | – | poor inhibition | – |
| – | – | 13.8 ± 2.02 | 32.1 ± 3.01 | 32.1 ± 0.84 | – | – | 43.5 ± 3.72 | 17.1 ± 1.87 | – | – | CCOC(=O)C(=O)c1cn(S(=O)(=O)c2ccc(C)cc2)c2ccccc12 [VII] | – | – | – | – | – | – | – | – |
